Assay results as given in patent US10864261B2, “Synthetic vaccines against Streptococcus pneumoniae serotype 2” (Max-Planck-Gesellschaft zur Förderung der Wissenschaften …, priority 2015, dated 2020).

Test system: synthetic oligosaccharides and native S. pneumoniae serotype 2 capsular polysaccharides printed on slides
Conditions: mice s.c., pooled sera
Procedure: On day 14 and 28 mice were received a booster injection with the same amount of antigen emulsified with 1:1 (v/v) alum. […] Mice were bled submandibular weekly using sterile single-use blood lancet. Control mice received only PBS and PBS in alum. The antibody responses were measured in both sera by glycan microarray and ELISA.
Preparation of microarrays slides: The CodeLink NHS activated glass slides (Surmodics) were spotted with synthetic glycans and native polysaccharides at two different concentration (100 μM and 200 μM) in printing buffer (50 mM sodium phosphate, pH 8.5) by using a S3 piezoelectric microarray printer (Scienion) equipped with a type 4 coated nozzle. The relative humidity of spotted chamber was constantly maintained at 65%. The spotted slides were incubated over night at room temperature in a humidifying chamber. […]
Microarray binding assays: The printed slides were blocked with PBS-BSA (1%) for 1 h at room temperature and washed 3 times with PBS. […] Slides were incubated with a fluorescence-labeled goat anti-mouse secondary antibodies (Life Technologies) diluted in 1% BSA in PBS (w/v) in a humid chamber for 1 h at room temperature, washed three times with PBST, rinsed once with deionized water and dried by centrifugation (300×g, 5 min) prior to scanning with a GenePix 4300A microarray scanner (Molecular Devices, Sunnyvale, Calif., USA). […]

C[C@@H]1O[C@H](O[C@H]2[C@H](O)[C@@H](O)[C@H](O[C@@H]3[C@@H](O)[C@H](C)O[C@@H](O[C@@H]4[C@@H](O)[C@H](C)O[C@@H](OCCCCCN)[C@@H]4O)[C@@H]3O[C@H]3O[C@H](CO[C@H]4O[C@H](C(=O)O)[C@@H](O)[C@H](O)[C@H]4O)[C@@H](O)[C@H](O)[C@H]3O)O[C@@H]2CO)[C@H](O)[C@H](O)[C@H]1O [hexasaccharide 2, 5-amino pentyl β-L-rhamnopyranosyl-(1→4)-β-D-glucopyranosyl-(1→3)-α-L-{α-D-glucopyranosyl uronate-(1→6)-α-D-glucopyranosyl-(1→2)}rhamnopyranosyl-(1→3)-α-L-rhamnopyranoside]
antibody response specific to hexasaccharide 2 / core glycan structures (immunogenicity) (3 μg sugar per dose with alum 1:1, boosts day 14 and 28, anti-mouse IgG): immunogenic in mice | cross-reactivity of raised antibodies with other fragments of hexasaccharide 2 printed on the slides (3 μg sugar per dose with alum 1:1): induces cross-reactive antibodies
